A short description of the data set: in vitro. Particulars: human, hela cells, % viability.

A word on the viability: it is a read-out of living cells in per cent, often relative to untreated cells. In the case of `O=C(O)c1ccc(CN2C(=O)c3ccc(C(=O)c4ccc(C(=O)O)cc4)cc3C2=O)cc1` [CBK262831], the viability at 28.5 h, 10 µM was 102%.

Regarding `O=C(O)Cc1sc(Nc2ccccc2)nc1-c1ccccc1` [CBK286775], the viability at 28.5 h, 10 µM amounted to 97.2%.

As to `COc1nccnc1OC1CCN(Cc2ccccc2-c2ccccc2)CC1` [CBK084246], the viability at 28.5 h, 10 µM stood at 87.7%.

Turning to `CN(C)CCN(C)c1nc(-c2ccc3[nH]ccc3c2)cn2ccnc12` [CBK066276], the viability at 28.5 h, 10 µM amounted to 94.4%.

On to `CSCCCNC(=O)C1(c2ccccc2)CCCC1` [CBK149526], for which the viability at 28.5 h, 10 µM came out at 109%.

For `COCCc1nc(-c2csc(CN(C)C)n2)n(Cc2ccccc2C)n1` [CBK306735], the viability at 28.5 h, 10 µM is 107%.

Regarding `Cc1nc(CNCc2c(C(C)C)nn(C)c2N(C)C)cs1` [CBK305119], the viability at 28.5 h, 10 µM came to 109%.

`CCOc1cc2c(cc1CN1CCN(Cc3noc(C)n3)CC1)CCC2` [CBK307138]: the viability at 28.5 h, 10 µM was determined as 83.1%.

For `Cn1nc(CC(=O)Nc2ccccc2C(=O)O)c2ccccc2c1=O` [CBK286558], the viability at 28.5 h, 10 µM was found to be 88.9%.

For `Cn1cc(CCNC(=O)NC2CCN(Cc3ccccn3)CC2)cn1` [CBK305297], the viability at 28.5 h, 10 µM was 102%.

Turning to `N#Cc1ccccc1-c1ccc(CSc2cccc(F)c2)cc1` [CBK002920], the viability at 28.5 h, 10 µM turned out to be 107%.

As for `COc1cc2cc(CN(Cc3cccnc3)C(=O)Nc3ccc(F)cc3)c(=O)[nH]c2cc1OC` [CBK108193], the viability at 28.5 h, 10 µM came to 93.3%.

Turning to `N#Cc1ccc(CN2CCCN(C(=O)c3cccc(F)c3)CC2)cc1` [CBK304010], the viability at 28.5 h, 10 µM was found to be 96.2%.

On to `Cc1ccc(CC(=O)N2CCC(Cc3ccc(-c4cccc(C)c4)cc3)(C(N)=O)CC2)cc1` [CBK285906], for which the viability at 28.5 h, 10 µM worked out at 89%.

As to `CS(=O)(=O)N(CC(=O)N1CCN(Cc2ccc3c(c2)OCO3)CC1)c1cccc(F)c1` [CBK074572], the viability at 28.5 h, 10 µM amounted to 102%.

For `O=C(c1ccccn1)N1C2CCC1CC(O)(c1ccco1)C2` (stereo not drawn) [CBK284034], the viability at 28.5 h, 10 µM worked out at 87%.

Consider `Cc1cc(C(=O)CSc2nnc(-c3ccccc3F)n2CC(C)C)c(C)[nH]1` [CBK297877], for which the viability at 28.5 h, 10 µM was determined as 85.1%.

As for `CCN(CC(=O)N1CCN(C)CC1)S(=O)(=O)c1ccc(OC)cc1` [CBK269374], the viability at 28.5 h, 10 µM was determined as 89.2%.

For the molecule `CC(Oc1ccccc1)C(=O)NCCCc1ccccc1` (stereo not drawn) [CBK264060], the viability at 28.5 h, 10 µM came out at 93.4%.

On to `O=C(NCc1ccc2c(c1)CCN2C(=O)c1ccncc1)c1cccnc1` [CBK288585], for which the viability at 28.5 h, 10 µM stood at 91.4%.

Turning to `CCOC(=O)N(C)c1c(CC)nc2ccc(C(=O)N(C)CCCN(C)C)cn12` [CBK146478], the viability at 28.5 h, 10 µM was 107%.

Consider `O=c1[nH]cc(S(=O)(=O)N2CCN(Cc3ccccc3Cl)CC2)c(=O)[nH]1` [CBK285889], for which the viability at 28.5 h, 10 µM was 97.1%.

Turning to `COc1ccc(-c2cc(Nc3ccc(OC)cc3OC)ncn2)cc1` [CBK090763], the viability at 28.5 h, 10 µM is 46.7%.

Regarding `CN(C)C(=O)C1(Cc2ccc(-c3cccs3)cc2)CCN(C(=O)c2ccccc2)CC1` [CBK286270], the viability at 28.5 h, 10 µM amounted to 85.5%.

Take `CC(=O)Nc1ccc(-c2cncc(N(CCO)CCO)n2)cc1` [CBK065789]: the viability at 28.5 h, 10 µM was 106%.

As to `C=CCOc1ccc(Cl)cc1C(=O)NCc1c(C)n[nH]c1C` [CBK282587], the viability at 28.5 h, 10 µM was 82.6%.

On to `COc1ccc(CCN2C(=O)CC(C(=O)O)S/C2=N\c2ccc(Cl)cc2)cc1OC` (stereo not drawn) [CBK263286], for which the viability at 28.5 h, 10 µM amounted to 93.9%.

As for `CC(=O)Nc1ccc(NS(=O)(=O)c2ccc(C)c(C(=O)O)c2)cc1` [CBK295162], the viability at 28.5 h, 10 µM amounted to 85.9%.

Turning to `Cc1ccc(C=C(c2ccccc2)c2nc3sc(C(=O)O)c(C)c3c(=O)[nH]2)s1` [CBK295638], the viability at 28.5 h, 10 µM was determined as 100%.

Consider `CC(C)c1[nH]c2ncccc2c1CN1CCSCC1` [CBK285312], for which the viability at 28.5 h, 10 µM stood at 94%.

For `CN(CC(=O)Nc1nnc[nH]1)S(=O)(=O)c1cc(Cl)ccc1Cl` [CBK267433], the viability at 28.5 h, 10 µM is 97%.

For the molecule `O=C(COc1ccc(F)cc1)Nc1ccc2[nH]ccc2c1` [CBK159689], the viability at 28.5 h, 10 µM stood at 98.6%.

With `CCC(=O)Nc1ccc(-c2csc(N3CCSCC3)n2)cc1` [CBK306469], the viability at 28.5 h, 10 µM was found to be 87%.

Turning to `Cc1cc(NS(=O)(=O)c2cccc3cccnc23)n(C)n1` [CBK067242], the viability at 28.5 h, 10 µM came to 89.1%.

Regarding `CCc1ccc2c(c1)C(=O)CC1(CCN(C(=O)c3cc(OC)c(C)c(OC)c3)CC1)O2` [CBK168098], the viability at 28.5 h, 10 µM worked out at 112%.

For the molecule `COc1cncc(-c2cnc(N)c(NC3CCOCC3)n2)c1` [CBK063846], the viability at 28.5 h, 10 µM turned out to be 85.7%.

As to `Cc1cc(NS(=O)(=O)N2CCCCC2)no1` [CBK269947], the viability at 28.5 h, 10 µM worked out at 100%.

In the case of `COc1ccc([C@@]23CC[C@@H](NC(=O)Nc4cccc(C#N)c4)C[C@@H]2N(C)CC3)cc1OC` [CBK036448T], the viability at 28.5 h, 10 µM was 103%.

As for `CSc1ccc(-n2ncc(-c3cccc(C(F)(F)F)c3)n2)cc1` [CBK112666], the viability at 28.5 h, 10 µM was found to be 93.6%.

On to `CC(NC(=O)CSc1ncc(-c2ccccc2)nn1)c1ccccc1` (stereo not drawn) [CBK267514], for which the viability at 28.5 h, 10 µM turned out to be 85.7%.

As to `CC(=O)Nc1cccc(-c2cnc(N)c(N3CCC(C(=O)O)CC3)n2)c1` [CBK063657], the viability at 28.5 h, 10 µM was found to be 98.9%.

For `c1ccc(-c2csc(Nc3cccnc3)n2)nc1` [CBK267184], the viability at 28.5 h, 10 µM came to 107%.

As to `CC1CCc2c(sc3ncnc(NCCCN4CCCCCC4=O)c23)C1` (stereo not drawn) [CBK305947], the viability at 28.5 h, 10 µM was 85.4%.

Turning to `CC(=O)Nc1nc(OCCN2CCCC2=O)cnc1/C=C\c1ccccc1` [CBK145371], the viability at 28.5 h, 10 µM was determined as 84.9%.

As to `CN1CC(C(=O)N2C3CCC2CC(c2ccc(F)cc2)C3)CC1=O` (stereo not drawn) [CBK283769], the viability at 28.5 h, 10 µM was 96.3%.

Turning to `COc1ccc(-c2cc(C3CCN(C(=O)C4CC4)C3)[nH]n2)cc1` (stereo not drawn) [CBK285263], the viability at 28.5 h, 10 µM is 91.5%.

As to `COc1ccc([C@@]23CC[C@@H](NS(=O)(=O)c4cccc5cccnc45)C[C@@H]2N(C)CC3)cc1OC` [CBK056849T], the viability at 28.5 h, 10 µM turned out to be 80.8%.

In the case of `Cc1nn(C)cc1CN(C)S(=O)(=O)c1cccc([N+](=O)[O-])c1` [CBK265399], the viability at 28.5 h, 10 µM was determined as 79.9%.

With `COc1ccc(Cn2c(=O)n(S(=O)(=O)c3cccc(-c4nnc(C)o4)c3)c3ccccc32)cc1` [CBK106558], the viability at 28.5 h, 10 µM is 89.8%.

In the case of `CCCn1c(SC(C)C(=O)Nc2ccc(S(=O)(=O)NC(C)C)cc2)n[nH]c1=O` (stereo not drawn) [CBK295169], the viability at 28.5 h, 10 µM is 87.9%.

Regarding `CC(Oc1cccc(F)c1)C(=O)N(Cc1cccnc1)CC1CCCO1` (stereo not drawn) [CBK305313], the viability at 28.5 h, 10 µM is 108%.

Take `Cc1cc(C)n(C2CCN(Cc3cn(C)c4cc(F)ccc34)CC2)n1` [CBK281806]: the viability at 28.5 h, 10 µM was 112%.

As to `Cc1cccc(NS(=O)(=O)c2ccc(I)cc2)n1` [CBK268818], the viability at 28.5 h, 10 µM was determined as 87%.

On to `Cc1cc(OCC(O)CN(Cc2ccccc2)C(C)(C)C)ccc1[N+](=O)[O-]` (stereo not drawn) [CBK086757], for which the viability at 28.5 h, 10 µM is 99.6%.

Turning to `Cc1ccc(C2=CCN(C(=O)c3cccc(S(=O)(=O)N(C)C)c3)CC2)cc1` [CBK298273], the viability at 28.5 h, 10 µM was 90.9%.

As to `O=S(=O)(Nc1ccc2cc(Br)cnc2n1)c1cccc2nsnc12` [CBK073894], the viability at 28.5 h, 10 µM was 82.8%.

Consider `Cc1cc(O)nc(-n2nc(C)cc2NC(=O)c2ccccc2)n1` [CBK287653], for which the viability at 28.5 h, 10 µM amounted to 101%.

Take `O=C1c2ccccc2NC(C(=O)O)(c2ccccc2)N1c1ccccc1Cl` (stereo not drawn) [CBK287169]: the viability at 28.5 h, 10 µM was 81%.

`CC(C)[C@@H](CO)Nc1cncc(-c2cccc(Cl)c2)n1` [CBK037261]: the viability at 28.5 h, 10 µM turned out to be 102%.

For the molecule `O=C1COc2ccccc2C/C=C/CC2(CCN(C(=O)c3cnccn3)CC2)C(=O)NCCN1` [CBK291997], the viability at 28.5 h, 10 µM was 106%.

Regarding `Oc1cccc2ccc(/C=C/c3ccc(-c4ccccc4Cl)o3)nc12` [CBK264445], the viability at 28.5 h, 10 µM came out at 97.7%.

Consider `Cc1cc(NC(=O)c2ccc(OC(C)C)cc2)no1` [CBK287575], for which the viability at 28.5 h, 10 µM came to 94.4%.

For the molecule `COC(C)(C)C(=O)N1CCCC(c2ccc(Cc3ccc(Cl)cc3)cn2)C1` (stereo not drawn) [CBK285846], the viability at 28.5 h, 10 µM came out at 98.6%.

With `Nc1ncnc(NCCc2ccc(Cl)cc2)c1[N+](=O)[O-]` [CBK267351], the viability at 28.5 h, 10 µM was 88.3%.

In the case of `CCc1c(S(=O)(=O)CCC(=O)OC)c2ccccc2[n+]([O-])c1C` [CBK155469T], the viability at 28.5 h, 10 µM amounted to 91.4%.

`Cc1cc(C[C@@H]2COC[C@H]2NCc2ccccc2Cl)on1` [CBK282969]: the viability at 28.5 h, 10 µM was 94.8%.

Regarding `CCN(CC)C(=O)c1sccc1NS(=O)(=O)Cc1ccccc1[N+](=O)[O-]` [CBK050396], the viability at 28.5 h, 10 µM was found to be 97%.

Regarding `O=C(c1nccs1)C1CCN(C(=O)C2(c3ccccc3)CC2)CC1` [CBK284206], the viability at 28.5 h, 10 µM worked out at 97.4%.

For `O=C(O)COc1ccc(S(=O)(=O)N2CCc3ccccc32)cc1` [CBK269882], the viability at 28.5 h, 10 µM was 102%.

`O=C(CN1CC(O)CC1c1cccc(C(F)(F)F)c1)NCc1cccs1` (stereo not drawn) [CBK305253]: the viability at 28.5 h, 10 µM amounted to 82.6%.

For the molecule `COc1cccc(/C=C/c2nc(C#N)c(NCCCN3CCOCC3)o2)c1` [CBK269506], the viability at 28.5 h, 10 µM worked out at 107%.

With `CCOc1ccc(N)cc1S(N)(=O)=O` [CBK010112], the viability at 28.5 h, 10 µM came to 93.2%.

Regarding `CS(=O)(=O)NCC1(c2ccccc2)CCN(S(=O)(=O)c2ccc(N3CCOCC3)nc2)CC1` [CBK051634], the viability at 28.5 h, 10 µM worked out at 90%.

`O=C(c1ccccc1)c1ccc(NC(=O)c2ccccc2F)c(NC(=O)c2ccccc2F)c1` [CBK265183]: the viability at 28.5 h, 10 µM came out at 93.2%.

Consider `CN1CCN(C(=O)c2cc(-c3ccc(C(=O)N4CCOCC4)cc3)cnc2N)CC1` [CBK158584], for which the viability at 28.5 h, 10 µM worked out at 85.6%.

On to `O=C(Cc1ccccc1F)N1CCC(c2cc3cccnc3[nH]2)CC1` [CBK285035], for which the viability at 28.5 h, 10 µM is 104%.

For the molecule `COc1ccc2c(c1)c(C(C(=O)O)N1CCN(c3ccccn3)CC1)cn2CC(=O)O` (stereo not drawn) [CBK286637], the viability at 28.5 h, 10 µM was determined as 98%.

As to `c1ccc2c(-c3cc(Nc4ccc5[nH]ccc5c4)ncn3)cccc2c1` [CBK037815], the viability at 28.5 h, 10 µM was found to be 42.9%.
